These results are taken from patent US20230203098A1, “HUMAN TRANSFERRIN RECEPTOR BINDING PEPTIDE” (priority 2020, published 2023).

The term pKd denotes −log10 of the Kd, conventionally taken in molar units.

pKd: −log10 of the molar value. Where a SMILES comes first, the peptide text is derived from it. Bridges are numbered along the chain shown (N, C = ends). [ ]: non-standard residue; d: D form. The star is where a group is joined. NH(CH2CH2O)8Me = COCCOCCOCCOCCOCCOCCOCCOCCN*; NMePhe(3-Cl) = CN[C@@H](Cc1cccc(Cl)c1)C(=O)O; NMeW = CN[C@@H](Cc1c[nH]c2ccccc12)C(=O)O; NMeY = CN[C@@H](Cc1ccc(O)cc1)C(=O)O; PEG4 = NCCOCCOCCOCCOCCC(=O)O; X1 = CN[C@H](CCCCN*)C(=O)O; Nle = CCCC[C@H](N)C(=O)O; Nva = CCC[C@H](N)C(=O)O; Abu = CC[C@H](N)C(=O)O

Sequence of transferrin receptor (hTfR) (P02786 whole entry): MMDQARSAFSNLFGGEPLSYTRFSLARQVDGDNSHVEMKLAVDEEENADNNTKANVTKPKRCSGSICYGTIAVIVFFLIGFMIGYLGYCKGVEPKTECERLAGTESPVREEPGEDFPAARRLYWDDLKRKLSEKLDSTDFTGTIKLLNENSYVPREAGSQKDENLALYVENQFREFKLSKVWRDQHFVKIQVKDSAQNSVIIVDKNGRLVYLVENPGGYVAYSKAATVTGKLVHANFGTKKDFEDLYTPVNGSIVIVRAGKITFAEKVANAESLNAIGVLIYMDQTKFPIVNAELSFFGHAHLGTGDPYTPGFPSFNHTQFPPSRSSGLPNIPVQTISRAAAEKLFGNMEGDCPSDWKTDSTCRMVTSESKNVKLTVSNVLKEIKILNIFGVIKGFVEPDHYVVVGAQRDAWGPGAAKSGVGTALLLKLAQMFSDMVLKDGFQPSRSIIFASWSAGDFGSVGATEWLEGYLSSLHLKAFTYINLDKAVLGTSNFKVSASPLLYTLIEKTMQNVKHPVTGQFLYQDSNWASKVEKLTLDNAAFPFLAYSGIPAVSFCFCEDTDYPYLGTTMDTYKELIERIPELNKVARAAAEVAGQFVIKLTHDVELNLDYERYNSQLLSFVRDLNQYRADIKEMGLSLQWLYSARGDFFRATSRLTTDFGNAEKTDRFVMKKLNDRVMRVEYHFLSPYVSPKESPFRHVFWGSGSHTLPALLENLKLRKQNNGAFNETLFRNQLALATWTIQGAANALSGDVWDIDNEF

The first assay has as its target transferrin receptor (hTfR) (Homo sapiens, UniProt P02786). The assay is described as follows: Intermolecular interaction evaluation test between transferrin receptor (hTfR) and peptide by surface plasmon resonance (SPR). The class given is binding. The note with it: surface plasmon resonance, hTfR; read-out: KD value for hTfR by SPR (class symbol). The essentials:
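hTfR captured on Ni-NTA chip then amine-coupled; peptides run single-cycle kinetics at 5–100 nM in 10 mM HEPES pH 8.0, 150 mM NaCl, 0.05% Tween 20, 0.1% BSA, 1.0% DMSO. KD from least-squares curve fitting of sensorgrams.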
(SPR reads the build-up and loss of mass on a sensor chip optically.)
Consider `CC[C@H](C)[C@@H]1NC(=O)[C@H](Cc2ccc(OC)cc2)NC(=O)[C@H](Cc2ccc(O)cc2)NC(=O)[C@H](CC(N)=O)NC(=O)[C@H](Cc2c[nH]c3ccccc23)N(C)C(=O)[C@H](C(C)C)NC(=O)[C@H](Cc2cccc(Cl)c2)N(C)C(=O)[C@H](C(C)C)NC(=O)[C@H](C)NC(=O)CSC[C@@H](C(=O)NCCOCCOCCOCCOCCC(N)=O)NC(=O)[C@H](Cc2ccc(O)cc2)N(C)C(=O)[C@H](Cc2ccccc2)NC(=O)[C@H](CCCNC(=N)N)NC(=O)C(C)(C)NC(=O)[C@H]([C@@H](C)CC)NC1=O` [compound 351], for which the pKd is 7.00 to 9.00.
In the case of `CC[C@H](C)[C@@H]1NC(=O)[C@H](Cc2ccc(OC)cc2)NC(=O)[C@H](Cc2ccc(O)cc2)NC(=O)[C@H](CC(N)=O)NC(=O)[C@H](Cc2c[nH]c3ccccc23)N(C)C(=O)[C@H](C(C)C)NC(=O)[C@H](Cc2cccc(Cl)c2)N(C)C(=O)[C@H](C(C)C)NC(=O)[C@H](C)NC(=O)CSC[C@@H](C(=O)NCCOCCOCCOCCOCCC(N)=O)NC(=O)[C@H](Cc2ccc(O)cc2)NC(=O)[C@H](Cc2ccccc2)NC(=O)[C@@H](CCCNC(=N)N)NC(=O)C(C)(C)NC(=O)[C@H]([C@@H](C)CC)NC1=O` [compound 352], the pKd is 7.00 to 9.00.
Still for that read-out and setting: the figure for `CC[C@H](C)[C@@H]1NC(=O)[C@H](Cc2ccc(OC)cc2)NC(=O)[C@H](Cc2ccc(O)cc2)NC(=O)[C@H](CC(N)=O)NC(=O)[C@H](Cc2c[nH]c3ccccc23)N(C)C(=O)[C@H](C(C)C)NC(=O)[C@H](Cc2cccc(Cl)c2)N(C)C(=O)[C@H](C(C)C)NC(=O)[C@H](C)NC(=O)CSC[C@@H](C(N)=O)NC(=O)[C@H](Cc2ccc(O)cc2)N(C)C(=O)[C@H](Cc2ccccc2)NC(=O)[C@@H](CCCNC(=N)N)NC(=O)C(C)(C)NC(=O)[C@H]([C@@H](C)CC)NC1=O` [compound 353] is 7.00 to 9.00; for `CC[C@H](C)[C@@H]1NC(=O)[C@H](Cc2ccc(OC)cc2)NC(=O)[C@H](Cc2ccc(O)cc2)NC(=O)[C@H](CC(N)=O)NC(=O)[C@H](Cc2c[nH]c3ccccc23)N(C)C(=O)[C@H](C(C)C)NC(=O)[C@H](Cc2cccc(Cl)c2)N(C)C(=O)[C@H](C(C)C)NC(=O)[C@H](C)NC(=O)CSC[C@@H](C(=O)NCCOCCOCCOCCOCCC(N)=O)NC(=O)[C@H](Cc2ccc(O)cc2)N(C)C(=O)[C@H](Cc2ccccc2)NC(=O)[C@@H](CCCNC(=N)N)NC(=O)C(C)(C)NC(=O)[C@H]([C@@H](C)CC)NC1=O` [compound 354] it is > 9.00.
As to `CC[C@H](C)[C@@H]1NC(=O)[C@H](Cc2ccc(OC)cc2)NC(=O)[C@H](Cc2ccc(O)cc2)NC(=O)[C@H](CC(N)=O)NC(=O)[C@H](Cc2c[nH]c3ccccc23)N(C)C(=O)[C@H](C(C)C)NC(=O)[C@H](Cc2cccc(Cl)c2)N(C)C(=O)[C@H](C(C)C)NC(=O)[C@H](C)NC(=O)CSC[C@@H](C(=O)N[C@H](CCC(=O)O)C(N)=O)NC(=O)[C@H](Cc2ccc(O)cc2)N(C)C(=O)[C@H](Cc2ccccc2)NC(=O)[C@@H](CCCNC(=N)N)NC(=O)C(C)(C)NC(=O)[C@H]([C@@H](C)CC)NC1=O` [compound 355], the pKd is 6.00 to 7.00.
The same measure, in the same setting: the figure for `CC[C@H](C)[C@@H]1NC(=O)[C@H](Cc2ccc(OC)cc2)NC(=O)[C@H](Cc2ccc(O)cc2)NC(=O)[C@H](CC(N)=O)NC(=O)[C@H](Cc2c[nH]c3ccccc23)N(C)C(=O)[C@H](C(C)C)NC(=O)[C@H](Cc2cccc(Cl)c2)N(C)C(=O)[C@H](C(C)C)NC(=O)[C@H](C)NC(=O)CSC[C@@H](C(=O)N[C@H](CCC(=O)O)C(=O)N[C@H](CCC(=O)O)C(N)=O)NC(=O)[C@H](Cc2ccc(O)cc2)N(C)C(=O)[C@H](Cc2ccccc2)NC(=O)[C@@H](CCCNC(=N)N)NC(=O)C(C)(C)NC(=O)[C@H]([C@@H](C)CC)NC1=O` [compound 356] is 7.00 to 9.00; for `CC[C@H](C)[C@@H]1NC(=O)[C@H](Cc2ccc(OC)cc2)NC(=O)[C@H](Cc2ccc(O)cc2)NC(=O)[C@H](CC(N)=O)NC(=O)[C@H](Cc2c[nH]c3ccccc23)N(C)C(=O)[C@H](C(C)C)NC(=O)[C@H](Cc2cccc(Cl)c2)N(C)C(=O)[C@H](C(C)C)NC(=O)[C@H](C)NC(=O)CSC[C@@H](C(=O)N[C@H](CCC(=O)O)C(=O)N(C)CC(=O)N[C@H](CCC(=O)O)C(N)=O)NC(=O)[C@H](Cc2ccc(O)cc2)N(C)C(=O)[C@H](Cc2ccccc2)NC(=O)[C@@H](CCCNC(=N)N)NC(=O)C(C)(C)NC(=O)[C@H]([C@@H](C)CC)NC1=O` [compound 357] it is 7.00 to 9.00.
Take `CC[C@@H]1NC(=O)[C@H]([C@@H](C)CC)NC(=O)[C@H]([C@@H](C)CC)NC(=O)[C@H](Cc2ccc(OC)cc2)NC(=O)[C@H](Cc2ccc(O)cc2)NC(=O)[C@H](CC(N)=O)NC(=O)[C@H](Cc2c[nH]c3ccccc23)N(C)C(=O)[C@H](C(C)C)NC(=O)[C@H](Cc2cccc(Cl)c2)N(C)C(=O)[C@H](C(C)C)NC(=O)[C@H](C)NC(=O)CSC[C@@H](C(=O)NCCOCCOCCOCCOCCC(N)=O)NC(=O)[C@H](Cc2ccc(O)cc2)N(C)C(=O)[C@H](Cc2ccccc2)NC(=O)[C@@H](CCCNC(=N)N)NC1=O` [compound 359] ({CH2CO}-AV[NMePhe(3-Cl)]V[NMeW]NYY(Me)II[Abu][dR]F[NMeY]C[PEG4]-NH2; thioether N-15): the pKd was 7.00 to 9.00.
With `CCC[C@@H]1NC(=O)[C@H]([C@@H](C)CC)NC(=O)[C@H]([C@@H](C)CC)NC(=O)[C@H](Cc2ccc(OC)cc2)NC(=O)[C@H](Cc2ccc(O)cc2)NC(=O)[C@H](CC(N)=O)NC(=O)[C@H](Cc2c[nH]c3ccccc23)N(C)C(=O)[C@H](C(C)C)NC(=O)[C@H](Cc2cccc(Cl)c2)N(C)C(=O)[C@H](C(C)C)NC(=O)[C@H](C)NC(=O)CSC[C@@H](C(=O)NCCOCCOCCOCCOCCC(N)=O)NC(=O)[C@H](Cc2ccc(O)cc2)N(C)C(=O)[C@H](Cc2ccccc2)NC(=O)[C@@H](CCCNC(=N)N)NC1=O` [compound 360] ({CH2CO}-AV[NMePhe(3-Cl)]V[NMeW]NYY(Me)II[Nva][dR]F[NMeY]C[PEG4]-NH2; thioether N-15), the pKd is 7.00 to 9.00.
Still for that read-out and setting: the figure for `CCCC[C@@H]1NC(=O)[C@H]([C@@H](C)CC)NC(=O)[C@H]([C@@H](C)CC)NC(=O)[C@H](Cc2ccc(OC)cc2)NC(=O)[C@H](Cc2ccc(O)cc2)NC(=O)[C@H](CC(N)=O)NC(=O)[C@H](Cc2c[nH]c3ccccc23)N(C)C(=O)[C@H](C(C)C)NC(=O)[C@H](Cc2cccc(Cl)c2)N(C)C(=O)[C@H](C(C)C)NC(=O)[C@H](C)NC(=O)CSC[C@@H](C(=O)NCCOCCOCCOCCOCCC(N)=O)NC(=O)[C@H](Cc2ccc(O)cc2)N(C)C(=O)[C@H](Cc2ccccc2)NC(=O)[C@@H](CCCNC(=N)N)NC1=O` [compound 361] ({CH2CO}-AV[NMePhe(3-Cl)]V[NMeW]NYY(Me)II[Nle][dR]F[NMeY]C[PEG4]-NH2; thioether N-15) is 7.00 to 9.00.

The same assay, now with this note: surface plasmon resonance, peptide vs hTfR; read-out: KD value, hTfR binding by SPR (class symbol).
Take `CC[C@H](C)[C@@H]1NC(=O)[C@H](Cc2ccc(OC)cc2)NC(=O)[C@H](Cc2ccc(O)cc2)NC(=O)[C@H](CC(N)=O)NC(=O)[C@H](Cc2c[nH]c3ccccc23)N(C)C(=O)[C@H](C(C)C)NC(=O)[C@H](Cc2cccc(Cl)c2)N(C)C(=O)[C@H](C(C)C)NC(=O)[C@H](C)NC(=O)CSC[C@@H](C(N)=O)NC(=O)[C@H](Cc2ccc(O)cc2)N(C)C(=O)[C@H](Cc2ccccc2)NC(=O)[C@@H](CCCNC(=N)N)NC(=O)[C@H](CCCNC(=N)N)NC(=O)[C@H](CCC(=O)NCCOCCOCCOCCOCCOCCOCCOCCOC)NC1=O` [compound 345] ({CH2CO}-AV[NMePhe(3-Cl)]V[NMeW]NYY(Me)IE(NH(CH2CH2O)8Me)R[dR]F[NMeY]C-NH2; thioether N-15): the negative logarithm of the Kd (pKd) is 7.00 to 9.00.
As to `CC[C@H](C)[C@@H]1NC(=O)[C@H](Cc2ccc(OC)cc2)NC(=O)[C@H](Cc2ccc(O)cc2)NC(=O)[C@H](CC(N)=O)NC(=O)[C@H](Cc2c[nH]c3ccccc23)N(C)C(=O)[C@H](C(C)C)NC(=O)[C@H](Cc2cccc(Cl)c2)N(C)C(=O)[C@H](C(C)C)NC(=O)[C@H](C)NC(=O)CSC[C@@H](C(N)=O)NC(=O)[C@H](Cc2ccc(O)cc2)N(C)C(=O)[C@H](Cc2ccccc2)NC(=O)[C@@H](CCCNC(=N)N)NC(=O)[C@H](CCCNC(=N)N)NC(=O)[C@H](CCC(=O)NCCCC[C@@H](NC)C(=O)O)NC1=O` [compound 346] ({CH2CO}-AV[NMePhe(3-Cl)]V[NMeW]NYY(Me)IE(X1)R[dR]F[NMeY]C-NH2; thioether N-15), the pKd was 7.00 to 9.00.
Turning to `CC[C@H](C)[C@@H]1NC(=O)[C@H](Cc2ccc(OC)cc2)NC(=O)[C@H](Cc2ccc(O)cc2)NC(=O)[C@H](CC(N)=O)NC(=O)[C@H](Cc2c[nH]c3ccccc23)N(C)C(=O)[C@H](C(C)C)NC(=O)[C@H](Cc2cccc(Cl)c2)N(C)C(=O)[C@H](C(C)C)NC(=O)[C@H](C)NC(=O)CSC[C@@H](C(N)=O)NC(=O)[C@H](Cc2ccc(O)cc2)N(C)C(=O)[C@H](Cc2ccccc2)NC(=O)[C@@H](CCCNC(=N)N)NC(=O)[C@H](CCCNC(=N)N)NC(=O)[C@H](CCC(=O)N[C@H](CCC(=O)O)C(=O)O)NC1=O` [compound 347] ({CH2CO}-AV[NMePhe(3-Cl)]V[NMeW]NYY(Me)IE(dE)R[dR]F[NMeY]C-NH2; thioether N-15), the pKd was 7.00 to 9.00.
On the same count and under the same terms, the figure for `CC[C@H](C)[C@@H]1NC(=O)[C@H](Cc2ccc(OC)cc2)NC(=O)[C@H](Cc2ccc(O)cc2)NC(=O)[C@H](CC(N)=O)NC(=O)[C@H](Cc2c[nH]c3ccccc23)N(C)C(=O)[C@H](C(C)C)NC(=O)[C@H](Cc2cccc(Cl)c2)N(C)C(=O)[C@H](C(C)C)NC(=O)[C@H](C)NC(=O)CSC[C@@H](C(=O)NCC(=O)NCC(=O)NCC(=O)NCC(=O)N[C@@H](CO)C(=O)N[C@@H](CO)C(=O)N[C@@H](CS)C(N)=O)NC(=O)[C@H](Cc2ccc(O)cc2)N(C)C(=O)[C@H](Cc2ccccc2)NC(=O)[C@@H](CCCNC(=N)N)NC(=O)[C@H](CCC(=O)O)NC(=O)[C@H]([C@@H](C)CC)NC1=O` [compound 348] is 6.00 to 7.00.
